{
  "source": "patent US20150272863A1",
  "about": "“H3 ANTAGONIST BY-PRODUCT, ITS MANUFACTURE, AND METHOD OF USING BY-PRODUCT TO REDUCE PIGMENTATION IN SKIN” (Active Concepts, LLC, priority 2014, published 2015)",
  "note": "Counter-ions that a name gives are not always drawn.",
  "data": [
    {"test_system": "mouse melanoma cells (B16F10 cell line)", "assay": "Melanin inhibition assay", "type": "cell-based", "settings": "found through experimentation; H3 antagonists", "description": "The assays utilized mouse melanoma cells (B16F10 cell line) which are very efficient at producing melanin. Various inhibitors and enhancers of melanin synthesis were added to the cultured cells along with experimental samples.\nThe B16F10 murine melanocytes were seeded into 24-well tissue culture plates and allowed to grow to confluency in complete DMEM. Solutions of H3 antagonists, Arbutin, alpha-Melanocyte Stimulating Hormone (a-MSH), and AA2G were prepared in Complete DMEM. Complete Dulbeco's Modified Eagle Media (DMEM) was used as the untreated control. Additionally, the individual components of the H3 antagonists, Yeast Peptide and Plant Extract, were also analyzed for melanogenic effects. Cells were treated for 72 hours.\nFor the inhibition assay, the media was removed from the wells and the monolayers were washed with phosphate buffered saline (PBS). NaOH was added to each well and 100 μL of each solution were added to a 96-well plate in duplicate. The plate was measured by optical density readings at 400 nm.\nAs discussed above, skin pigmentation is determined by the amount of melanin in the skin which is produced by […] melanocytes. In addition to the melanin inhibition study comparing the fermented plant abstract to AA2G, Arbutin, α-MSH, and Kojic acid, a melanin inhibition study was conducted to compare the fermented plant extract with its individual components—peptide from yeast and plant extract—to assess their ability to inhibit melanin synthesis. The melanin assay was conducted using the same methodogies as discussed above with respect to H3 antagonists, in general.", "values": [
      {"compound": "Br.Br.C[C@@H](N)Cc1c[nH]cn1", "note": "[(R)-(-)-a-Methylhistamine dihydrobromide]", "suitability to reduce or eliminate pigmentation in a users skin": "suitable for use as a by-product in cosmetics to reduce or eliminate pigmentation"},
      {"compound": "C[C@H]1[C@H]2CC[C@H]3[C@@H]4CC=C5C[C@@H](N(C)C)CC[C@]5(C)[C@H]4CC[C@]23CN1C", "note": "[Conessine]", "suitability to reduce or eliminate pigmentation in a users skin": "suitable for use as a by-product in cosmetics to reduce or eliminate pigmentation"},
      {"compound": "N=C(N)SCCc1cnc[nH]1", "note": "[Imetit dihydrobromide]", "suitability to reduce or eliminate pigmentation in a users skin": "suitable for use as a by-product in cosmetics to reduce or eliminate pigmentation"},
      {"compound": "NCCCCCc1cnc[nH]1", "note": "[Impentamine dihydrobromide]", "suitability to reduce or eliminate pigmentation in a users skin": "suitable for use as a by-product in cosmetics to reduce or eliminate pigmentation"}
    ]}
  ]
}
